The results in this text go back to patent US11332455B2, “α,β-unsaturated amide compound” (KYOWA KIRIN CO., LTD., priority 2015, dated 2022).

Assay [1] relates to NCI-H226 cells, a human mesothelioma cell line. Nature of the assay: Cell growth inhibitory effect, cell counting kit 8, 6 days. Type of assay: cell-based. The settings on record: 144 h, 6 days incubation. An excerpt: (§1) Cell growth inhibitory effect on human mesothelioma, human liver cancer, human ovarian cancer, and […]
(§2) NCI-H226 cells, a human mesothelioma cell line (ATCC, CRL-5826), NCI-H322 cells, a human lung cancer cell line (the European Collection of Authenticated Cell Cultures, 95111734), OVTOKO cells, a human ovarian cancer cell line (JCRB cell bank, JCRB1048) and HuH28, a human liver cancer cell line (JCRB cell bank, JCRB0426) were each subcultured by keeping the cell density under 80% in a RPMI1640 culture medium with 10% fetal bovine serum (FBS). NCI-H226 cells, NCI-H322 cells and SSP-25 cells were each suspended in the RPM11640 culture medium mentioned above, and plated to a 96-well flat-bottom plate at 500 cells/well in each well, and incubated at 37° C. in an incubator with 5% CO2 for one day. After the incubation, the evaluation of cell growth inhibitory activity was started. OVTOKO cells were suspended in the RPMI1640 culture medium mentioned above, and plated to a 96-well flat-bottom plate at 250 cells/well in each well, and incubated it at 37° C. in an incubator with 5% CO2 for one day. After the incubation, the evaluation of the cell growth inhibitory activity was started. The next day, a test compound was serially diluted to 5 times of its final concentration in the RPM11640 culture medium mentioned above, and the diluted solution was added to each well. In this case, the final concentration of DMSO in each well was adjusted to 0.1%. After the test compound was added, cells were incubated at 37° C. in an incubator with 5% CO2 for 6 days. At the addition of the test compound and 6 days after the addition, the cell counting measurement was performed using a cell counting kit 8 (made by DOJINDO) according to a protocol equivalent to DOJINDO's recommendation. A reagent contained in the kit was added to each plate and color reaction was performed for 2 or 3 hours at 37° C. in an incubator with 5% CO2. After the reaction, an absorbance at wavelength of 450 nm was measured using a microplate reader. A growth inhibition rate was calculated according to the following formula, from which the concentration of a test compound at which cell growth was inhibited by 50% (GI50 value) was determined.

The subject of assay [2] is NCI-H322 cells, a human lung cancer cell line. Described as above. The settings on record: 144 h, 6 days incubation. The format is cell-based.
From the text: as §1, §2

Setting [3] is: group 100 nmol/L to 1 μmol/L (upper bound given in μmol/L).

Broadly, the GI50 is the concentration that inhibits growth by half. Low readings indicate more potent growth inhibition, high ones less potent growth inhibition.

For the compound `C=CC(=O)NC1COc2c(cccc2Oc2ccc(C(F)(F)F)nc2)C1` (racemic) [Compound 51, N-(8-[{6-(Trifluoromethyl)pyridin-3-yl}oxy]chroman-3-yl)acrylamide], the GI50 in assay [1] (group less than 100 nmol/L) was less than 100 nM; in assay [2], less than 1000 nM.

Turning to `C=CC(=O)N[C@@H]1c2ccc(Oc3ccc(C(F)(F)F)cc3)cc2OC[C@@H]1F` (relative stereo) [Compound 21, cis-N-[3-Fluoro-7-{4-(trifluoromethyl)phenoxy}chroman-4-yl]acrylamide], the results for the GI50 in assay [1] (group less than 100 nmol/L) and in assay [2] were less than 100 nM and less than 1000 nM, respectively.

For `C=CC(=O)N[C@H]1CC[C@@H](Oc2ccc(Cl)cc2)c2nc(Cl)ccc21` (relative stereo) [Compound 70, cis-N-{2-Chloro-8-(4-chlorophenoxy)-5,6,7,8-tetrahydroquinolin-5-yl}acrylamide], the GI50 was less than 100 nM in assay [1] (group less than 100 nmol/L) and less than 1000 nM in assay [2]. For `C=CC(=O)N[C@H]1CC[C@@H](Oc2ccc(Cl)cc2)c2nc(OC)ccc21` (relative stereo) [Compound 71, cis-N-{8-(4-Chlorophenoxy)-2-methoxy-5,6,7,8-tetrahydroquinolin-5-yl}acrylamide], in that order: less than 100 nM and less than 1000 nM. For `C=CC(=O)N[C@H]1CC[C@@H](Oc2ccc(C(F)(F)F)cc2)c2nc(Cl)ccc21` (relative stereo) [Compound 76, cis-N-[2-Chloro-8-{4-(trifluoromethyl)phenoxy}-5,6,7,8-tetrahydroquinolin-5-yl]acrylamide] the same measures were less than 100 nM and less than 1000 nM. For `C=CC(=O)N[C@H]1CC[C@H](Oc2ccc(C(F)(F)F)cc2)c2nc(Cl)ccc21` (relative stereo) [Compound 82, trans-N-[2-Chloro-8-{4-(trifluoromethyl)phenoxy}-5,6,7,8-tetrahydroquinolin-5-yl]acrylamide], in that order: less than 100 nM and less than 1000 nM. On to `C=CC(=O)N[C@H]1CC[C@@H](Oc2ccc(C(F)(F)F)cc2)c2nc(C)ccc21` (relative stereo) [Compound 184, cis-N-[2-Methyl-8-{4-(trifluoromethyl)phenoxy}-5,6,7,8-tetrahydroquinolin-5-yl]acrylamide], for which the GI50 in assay [1] (group less than 100 nmol/L) is less than 100 nM; in assay [2], less than 1000 nM. For `C=CC(=O)NC1CCOc2c1ccc(Oc1ccc(Cl)cc1)c2C` (stereo not shown) [Compound 27, N-{7-(4-Chlorophenoxy)-8-methylchroman-4-yl}acrylamide] the same measures were less than 100 nM and less than 1000 nM. For `C=CC(=O)NC1CCOc2c1ccc(Oc1ccc(Cl)cc1)c2OC` (stereo not shown) [Compound 32, N-{7-(4-Chlorophenoxy)-8-methoxychroman-4-yl}acrylamide], in that order: less than 100 nM and less than 1000 nM.

As to `C=CC(=O)NC1COc2cccc(Oc3ccc(C(F)(F)F)cc3)c2C1` (stereo not shown) [Compound 35, N-[5-{4-(Trifluoromethyl)phenoxy}chroman-3-yl]acrylamide], the figures for the GI50 in assay [1] (group less than 100 nmol/L) and in assay [2] were less than 100 nM and less than 1000 nM, respectively.

In turn, `C=CC(=O)NC1COc2cc(Oc3ccc(Cl)cc3)ccc2C1` (stereo not shown) [Compound 37, N-{7-(4-Chlorophenoxy)chroman-3-yl}acrylamide] had a GI50 in assay [2] of less than 1000 nM.

In the case of `C=CC(=O)NC1COc2c(Oc3ccc(Cl)cc3)ccc(C)c2C1` (stereo not shown) [Compound 41, N-{8-(4-Chlorophenoxy)-5-methylchroman-3-yl}acrylamide], the results for the GI50 in assay [1] (group less than 100 nmol/L) and in assay [2] were less than 100 nM and less than 1000 nM, respectively. With `C=CC(=O)NC1COc2c(cccc2Oc2ccc(Cl)cc2)C1` (stereo not shown) [Compound 59, N-{8-(4-chlorophenoxy)chroman-3-yl}acrylamide], the GI50 is less than 100 nM in assay [1] (group less than 100 nmol/L) and less than 1000 nM in assay [2]. With `C=CC(=O)NC1COc2c(cccc2Oc2ccc(C(F)(F)F)cc2)C1` (stereo not shown) [Compound 61, N-[8-{4-(Trifluoromethyl)phenoxy}chroman-3-yl]acrylamide], the GI50 in assay [2] was less than 1000 nM. The same measure, in the same setting: to `C=CC(=O)NC1COc2c(cccc2Oc2ccc(C(F)(F)F)cn2)C1` (stereo not shown) [Compound 64, N-(8-[{5-(Trifluoromethyl)pyridin-2-yl}oxy]chroman-3-yl)acrylamide] belongs less than 1000 nM. Take `C=CC(=O)Nc1cncc(Oc2ccc(C(F)(F)F)c(F)c2)c1` [Compound 106, N-[5-{3-Fluoro-4-(trifluoromethyl)phenoxy}pyridin-3-yl]acrylamide]: the GI50 is 100 to 1000 nM in assay [1] (setting [3]) and less than 1000 nM in assay [2].

Turning to `C=CC(=O)Nc1cncc(Oc2ccc(C(F)(F)F)cn2)c1` [Compound 109, N-(5-[{5-(Trifluoromethyl)pyridin-2-yl}oxy]pyridin-3-yl)acrylamide], the GI50 in assay [1] (group less than 100 nmol/L) was less than 100 nM; in assay [2], less than 1000 nM. The compound `O=C(/C=C/C(F)(F)F)NCc1cc(Oc2ccc(C(F)(F)F)cc2)nc2ccccc12` [Compound 147, (E)-4,4,4-Trifluoro-N-([2-{4-(trifluoromethyl)phenoxy}quinolin-4-yl]methyl)-2-butenamide] returned a GI50 in assay [1] (setting [3]) of 100 to 1000 nM. Still for that read-out and setting: in the case of `C=CC(=O)NC1COc2c(cccc2Oc2ccc(C(F)(F)F)nn2)C1` (stereo not shown) [Compound 156, N-(8-[{6-(trifluoromethyl)pyridazin-3-yl}oxy]chroman-3-yl)acrylamide] it was 100 to 1000 nM. Take `C=CC(=O)NC1COc2c(cccc2Oc2cnc(C(F)(F)F)cn2)C1` (stereo not shown) [Compound 157, N-(8-[{5-(Trifluoromethyl)pyrazin-2-yl}oxy]chroman-3-yl)acrylamide]: the results for the GI50 in assay [1] (group less than 100 nmol/L) and in assay [2] were less than 100 nM and less than 1000 nM, respectively. `C=CC(=O)NC1CCOc2c1ccc(OCc1ccccc1)c2F` (stereo not shown) [Compound 166, N-{7-(Benzyloxy)-8-fluorochroman-4-yl}acrylamide]: in assay [1] (setting [3]), the GI50 fell in the range of 100 to 1000 nM.

In turn, `C=CC(=O)NC1CCOc2c1ccc(Oc1ccc(F)cc1)c2F` (stereo not shown) [Compound 167, N-{8-Fluoro-7-(4-fluorophenoxy)chroman-4-yl}acrylamide] registered a GI50 in assay [1] (group less than 100 nmol/L) of less than 100 nM. Compound `C=CC(=O)NC1CCOc2c1ccc(Oc1ccc(C(F)(F)F)nc1)c2OCC` (stereo not shown) [Compound 172, N-(8-Ethoxy-7-[{6-(trifluoromethyl)pyridin-3-yl}oxy]chroman-4-yl)acrylamide] registered a GI50 in assay [1] (setting [3]) of 100 to 1000 nM.

Take `C=CC(=O)NCc1cc(Oc2ccc(C(F)(F)F)cc2)cc2cccnc12` [Compound 221, N-([6-{4-(Trifluoromethyl)phenoxy}quinolin-8-yl]methyl)acrylamide]: the GI50 in assay [1] (setting [3]) lay in the range of 100 to 1000 nM. In turn, `C=CC(=O)NC1CCC(Oc2ccc(C(F)(F)F)cc2)c2cnccc21` (stereo not shown) [Compound 228, N-[8-{4-(Trifluoromethyl)phenoxy}-5,6,7,8-tetrahydroisoquinolin-5-yl]acrylamide] showed a GI50 in assay [2] of less than 1000 nM. As to `C=CC(=O)NC1COc2c(cc(Br)cc2Oc2ccc(C(F)(F)F)nc2)C1` (stereo not shown) [Compound 231, N-(6-Bromo-8-[{6-(trifluoromethyl)pyridin-3-yl}oxy]chroman-3-yl)acrylamide], in assay [1] (group less than 100 nmol/L), the GI50 was less than 100 nM. Still for that read-out and setting: in the case of `C=CC(=O)NC1CCOc2c1ccc(Oc1ccc(C(F)(F)F)cc1)c2OC` (stereo not shown) [Compound 237, N-[8-Methoxy-7-{4-(trifluoromethyl)phenoxy}chroman-4-yl]acrylamide] it was less than 100 nM; in that of `C=CC(=O)NC1CCOc2c1ccc(Oc1ccc(C(F)(F)F)cc1)c2F` (stereo not shown) [Compound 239, N-[8-Fluoro-7-{4-(trifluoromethyl)phenoxy}chroman-4-yl]acrylamide], less than 100 nM.
